From US7018659B2, “Anti-arrhythmic pharmaceutical composition and a process thereof” (Council of Scientific & Industrial Research, priority 2002, dated 2006)

What was measured:
[1] = tested on: isolated guineapig auricle; experiment: Aconitine-induced arrhythmia in isolated guineapig auricle; conditions: aconitine 15 ng/ml
Description: Isolated guineapig auricle was prepared after Burn J H (1952). Aconitine (15 ng/ml) when added, set up arrhythmia within (40±5) mins. This novel compound (5 ng/ml) could revert arrhythmia to normal within (45±4.2) mins. The normal functioning state was maintained, observed up to 6 hrs. Again, arrhythmia was set in isolated auricle with 2.25 mM CaCl2. Arrhythmia was reverted to normal with the novel compound (5 ng/ml) within (30±3.36) mins of observation.

male Wister albino rats = experiment: Electrocardiograph studies (hypodynamic heart), aconitine-induced arrhythmia in anaesthetized rats; format: in vivo; conditions: aconitine 50 μg/100 g infused through the jugular vein
Description: Electrocardiograph studies were conducted on urethane (1.75 g/kg, i.p) anaesthetized male Wister albino rats (150±10 g). Recordings were obtained in lead II. Aconitine (50 μg/100 g) was infused through the jugular vein and arrhythmia was induced within 30±5 mins.

## CCN1C[C@]2(COC)[C@H](O)C[C@H](OC)[C@@]34[C@@H]5C[C@@]6(O)[C@H](OC(=O)c7ccccc7)[C@@H]5[C@@](OC(C)=O)([C@@H]([C@H](OC)[C@H]23)[C@@H]14)[C@@H](O)[C@@H]6OC [Aconitine]
[1]
  time to set up arrhythmia: ≤ 40 ± 5 min
Male Wister albino rats
  time to induction of arrhythmia: ≤ 30 ± 5 min
